Experimental data from ChEMBL document CHEMBL1139953, “Bis[(para-methoxy)benzyl] phosphonate prodrugs with improved stability and enhanced cell penetration” (Bioorg Med Chem Lett, 2007).

Tests used:
[1] = tested on: Liver microsomes; test: Drug activation in NADPH-fortified human liver microsomes assessed as rate of NMPA formation; design: species or system Microsome
[2] = tested on: Liver microsomes; test: Drug activation in NADPH-fortified rat liver microsomes assessed as rate of NMPA formation; design: species or system Microsome
[3] = tested on: Hepatocyte; test: Drug activation in rat hepatocytes by measuring intracellular NMPA levels at 100 uM after 1 hr; type: cell-based
[4] = Stability assessed as half life in rat plasma; type: ADME, cell-free
[5] = Stability assessed as half life in Krebs bicarbonate buffer at 37degC; type: physicochemical
[6] = tested on: Nucleic Acid; test: Ratio of drug activation in NADPH-fortified human liver microsomes to NADPH-fortified rat liver microsomes assessed as rate of NMPA formation; design: species or system Microsome
[7] = tested on: Liver microsomes; test: Drug activation in human liver microsomes assessed as rate of NMPA formation; design: species or system Microsome
[8] = tested on: Liver; test: Drug activation in NADPH-fortified rat liver without microsomes assessed as rate of NMPA formation; design: species or system Microsome

Structure (SMILES)	Activity [3]	half-life [4]	other results
COc1cc(COP(=O)(Cc2cccc3ccccc23)OCc2cc(Br)c(OC)c(Br)c2)cc(OC)c1OC (stereo not given)	26 nmol/g	–	–
COc1ccc(COP(=O)(Cc2cccc3ccccc23)OCc2ccc(OC)c(C(F)(F)F)c2)cc1C(F)(F)F	46 nmol/g	> 120 min	–
COc1ccc(COP(=O)(Cc2cccc3ccccc23)OCc2ccc(OC)c(C(C)=O)c2)cc1C(C)=O	0 nmol/g	–	–
COc1c(Cl)cc(COP(=O)(Cc2cccc3ccccc23)OCc2cc(Cl)c(OC)c(Cl)c2)cc1Cl	0 nmol/g	–	–
CCOP(=O)(Cc1cccc2ccccc12)OCC	0 nmol/g	–	–
COc1ccc(COP(=O)(Cc2cccc3ccccc23)OCc2ccc(OC)cc2)cc1	91 nmol/g	9 min	half-life [5]: 9 min
COc1ccc(COP(=O)(Cc2cccc3ccccc23)OCc2ccc(OC)c([N+](=O)[O-])c2)cc1[N+](=O)[O-]	60 nmol/g	> 120 min	–
O=P(O)(O)Cc1cccc2ccccc12	0 nmol/g	–	–
COc1c(Br)cc(COP(=O)(Cc2cccc3ccccc23)OCc2cc(Br)c(OC)c(Br)c2)cc1Br	0 nmol/g	–	–
CC(C)C(=O)OCOP(=O)(Cc1cccc2ccccc12)OCOC(=O)C(C)C	85 nmol/g	0.5 min	–

The next lines start with results.

Activity [3]	half-life [4]	Structure (SMILES)	other results
125 nmol/g	> 120 min	COc1ccc(COP(=O)(Cc2cccc3ccccc23)OCc2ccc(OC)c(F)c2)cc1F	Activity [1]: 5.23 pmol/min/mg; Activity [2]: 2.94 pmol/min/mg; half-life [5]: > 120 min; Ratio [6]: 2
130 nmol/g	> 120 min	COc1ccc(COP(=O)(Cc2cccc3ccccc23)OCc2ccc(OC)c(Cl)c2)cc1Cl	Activity [1]: 4.52 pmol/min/mg; Activity [2]: 1.58 pmol/min/mg; half-life [5]: > 120 min; Ratio [6]: 2
73 nmol/g	> 120 min	COc1ccc(COP(=O)(Cc2cccc3ccccc23)OCc2ccc(OC)c(C#N)c2)cc1C#N	–
76 nmol/g	> 120 min	COc1ccc(COP(=O)(Cc2cccc3ccccc23)OCc2ccc(OC)c(Br)c2)cc1Br	Activity [1]: 4.85 pmol/min/mg; Activity [7]: 0 pmol/min/mg; Activity [2]: 2.76 pmol/min/mg; Activity [8]: 0 pmol/min/mg; half-life [5]: > 120 min; Ratio [6]: 2
54 nmol/g	> 120 min	CCOc1ccc(COP(=O)(Cc2cccc3ccccc23)OCc2ccc(OCC)c(Cl)c2)cc1Cl	–
0 nmol/g	–	CCCOc1ccc(COP(=O)(Cc2cccc3ccccc23)OCc2ccc(OCCC)c(Cl)c2)cc1Cl	–
